# Source: publication PMC3335078, “Length and Amino Acid Sequence of Peptides Substituted for the 5-HT3A Receptor M3M4 Loop May Affect Channel Expression and Desensitization” (PLoS ONE, 2012)
# Tests used:
# [1] = molecular target: T1, 5-HT3A-A5 (M3M4 loop replaced by five alanines) (Mus musculus, UniProt P23979); test: Two-electrode voltage clamp, oocytes expressing 5-HT3A-A5; format: cell-based
# T1 construct: expressed in transfected cells; host or cells: Xenopus laevis oocytes injected with mRNA
# T1 sequence (P23979 with tags, fused parts or gaps isoform P23979-2 limits assumed): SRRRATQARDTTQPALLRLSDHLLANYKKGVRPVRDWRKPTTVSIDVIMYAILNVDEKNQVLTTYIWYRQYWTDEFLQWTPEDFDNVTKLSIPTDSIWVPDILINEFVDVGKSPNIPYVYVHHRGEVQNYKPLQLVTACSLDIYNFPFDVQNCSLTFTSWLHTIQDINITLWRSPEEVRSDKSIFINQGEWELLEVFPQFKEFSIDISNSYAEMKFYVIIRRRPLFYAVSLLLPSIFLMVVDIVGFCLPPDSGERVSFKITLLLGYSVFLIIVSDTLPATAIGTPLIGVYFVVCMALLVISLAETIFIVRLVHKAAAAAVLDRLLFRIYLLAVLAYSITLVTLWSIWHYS
# Source text: (§1) The mouse 5-HT3A cDNA with an N-terminal V5 epitope tag was cloned into the pXOON vector as previously described, and is referred to in this paper as “wild-type” (WT). The starting construct for all of the M3M4 loop replacement constructs used in this work was the 5-HT3A-ΔM3M4 construct formed by splicing the cytoplasmic end of M3 (M3-LVHK/QDLQRP…) to the cytoplasmic end of M4 (…WLRVGY/VLDRLL-M4). The splice was made at the site of the “/” to yield the sequence M3-LVHK/VLDRLL-M4 [34]. This removed 115 residues predicted to form the M3M4 loop.
# (§2) The construction of the 5-HT3A-glvM3M4 chimera with the 5-HT3A M3M4 loop replaced by the GLIC heptapeptide M3M4 loop (SQPARAA) was described previously. Point mutations, alanine and Gly-Ser-Ala insertions into the 5-HT3A-ΔM3M4 construct were generated with the Quikchange site directed mutagenesis procedure (Stratagene, La Jolla, CA). The entire coding region of all mutant constructs was verified by DNA sequencing (Albert Einstein College of Medicine DNA Sequencing Facility). The pXOON plasmid was linearized using NheI and capped mRNA prepared with T7 RNA polymerase (mMessage mMachine, Ambion, Austin, TX).
# Use of Xenopus laevis in this study was carried out in strict accordance with the recommendations in the Guide for the Care and Use of Laboratory Animals of the National Institutes of Health. The protocol was approved by the Albert Einstein College of Medicine Animal Care and Use Committee (Protocol Number: 20081201). All surgery was performed under tricaine anesthesia, and all efforts were made to minimize suffering. Oocyctes were harvested from Xenopus (Nasco Science, Fort Atkinson, WI) anesthetized with 0.15% tricaine. […]
# Currents were recorded under two-electrode voltage clamp from oocytes 2–5 d post-injection as described previously. […]
# (§3) Desensitization rates were determined by fitting a single exponential decay function to the current data with Prism 4 software (GraphPad Software). Significant differences compared with wild-type were determined by a one-way ANOVA (p<0.05) using Dunnett's multiple comparison post-hoc test (p<0.05). […]
# [2] = molecular target: T2, 5-HT3A-A3 (M3M4 loop replaced by three alanines) (Mus musculus, UniProt P23979, DELINS338-452AAA); test: Two-electrode voltage clamp, oocytes expressing 5-HT3A-A3; format: cell-based
# T2 construct: expressed in transfected cells; host or cells: Xenopus laevis oocytes injected with mRNA
# T2 sequence (P23979 with tags, fused parts or gaps isoform P23979-2 DELINS338-452AAA limits assumed): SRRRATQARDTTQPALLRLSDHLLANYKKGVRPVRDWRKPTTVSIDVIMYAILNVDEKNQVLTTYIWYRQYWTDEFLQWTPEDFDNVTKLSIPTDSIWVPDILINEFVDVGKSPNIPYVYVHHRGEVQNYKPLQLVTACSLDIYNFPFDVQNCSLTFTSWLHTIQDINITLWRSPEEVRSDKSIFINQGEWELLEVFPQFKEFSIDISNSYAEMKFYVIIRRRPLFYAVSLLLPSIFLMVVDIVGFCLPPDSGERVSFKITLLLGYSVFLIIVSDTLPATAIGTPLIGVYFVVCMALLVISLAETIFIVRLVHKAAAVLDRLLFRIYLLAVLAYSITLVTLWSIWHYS
# Source text: as §1, §2
# Use of Xenopus laevis in this study was carried out in strict accordance with the recommendations in the Guide for the Care and Use of Laboratory Animals of the National Institutes of Health. The protocol was approved by the Albert Einstein College of Medicine Animal Care and Use Committee (Protocol Number: 20081201). All surgery was performed under tricaine anesthesia, and all efforts were made to minimize suffering. Oocyctes were harvested from Xenopus (Nasco Science, Fort Atkinson, WI) anesthetized with 0.15% tricaine. Oocyctes were defolliculated by incubation in 2 mg ml^−1 Type 1A collagenase (Sigma-Aldrich, St. Louis, MO) in OR2 (85 mM NaCl, 2 mM KCl, 1 mM MgCl2, and 5 mM HEPES; pH adjusted to 7.5 with NaOH) for a 60 or 75 min. Oocytes were washed in OR2 and stored at 16°C in SOS medium: 100 mM NaCl, 2 mM KCl, 1 mM MgCl2, 1.8 mM CaCl2 5 mM HEPES, pH 7.5 with 100 IU ml^−1 penicillin, 100 µg ml^−1 streptomycin, and 250 ng ml^−1 amphotericin B (Invitrogen, Carlsbad, CA) and 5% horse serum (Sigma-Aldrich). 24 hrs following isolation, oocyctes were injected with 23 nl (2.3 ng) of mRNA and were kept in SOS media for 2–5 d at 16°C.
# Currents were recorded under two-electrode voltage clamp from oocytes 2–5 d post-injection as described previously. […] The perfusion chamber volume was 200 µl. […]
# as §3
# 5-HT3A-A2 = molecular target: T3, 5-HT3A-A2 (Mus musculus, UniProt P23979, DELINS338-452AA); test: Radioactive 5-HT binding to oocytes expressing 5-HT3A-A2; details: 150 nM [3H]5-HT + 10 µM 5-HT, 5 min, 45 s cold wash
# T3 construct: expressed in transfected cells; host or cells: Xenopus laevis oocytes injected with mRNA
# Procedure: (§4) Assays were terminated by five washes with ice cold CFFR buffer, followed by solubilization of the oocytes individually with 200 µl 5% SDS. Total wash time was 45 s. […] All data points represent the average of at least fifteen individual oocytes derived from three separate oocyte isolations.
# (§5) To determine the extent of non-specific binding, all binding experiments were performed in parallel with diethylpyrocarbonate-(DEPC)-treated-water injected oocytes or uninjected oocytes.
# 5-HT3A-A1 = molecular target: T4, 5-HT3A-A1 (Mus musculus, UniProt P23979, DELINS338-452A); test: Radioactive 5-HT binding to oocytes expressing 5-HT3A-A1; details: 150 nM [3H]5-HT + 10 µM 5-HT, 5 min, 45 s cold wash
# T4 construct: expressed in transfected cells; host or cells: Xenopus laevis oocytes injected with mRNA
# Procedure: as §4, §5
# [3] = 10 µM 5-HT, Xenopus oocytes, -60 mV
# [4] = prolonged 10 µM 5-HT, may be limited by solution exchange
# T4 sequence (P23979 with tags, fused parts or gaps isoform P23979-2 DELINS338-452A limits assumed): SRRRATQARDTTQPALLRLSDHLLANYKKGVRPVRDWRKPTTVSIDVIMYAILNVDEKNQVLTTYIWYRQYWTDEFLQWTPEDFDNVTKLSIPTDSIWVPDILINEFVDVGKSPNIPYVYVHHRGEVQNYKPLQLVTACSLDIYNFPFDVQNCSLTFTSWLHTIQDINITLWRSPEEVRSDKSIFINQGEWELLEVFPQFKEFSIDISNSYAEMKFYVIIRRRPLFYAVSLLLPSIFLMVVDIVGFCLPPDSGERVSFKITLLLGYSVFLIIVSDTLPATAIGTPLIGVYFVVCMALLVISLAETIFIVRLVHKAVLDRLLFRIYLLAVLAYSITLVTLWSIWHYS
# T3 sequence (P23979 with tags, fused parts or gaps isoform P23979-2 DELINS338-452AA limits assumed): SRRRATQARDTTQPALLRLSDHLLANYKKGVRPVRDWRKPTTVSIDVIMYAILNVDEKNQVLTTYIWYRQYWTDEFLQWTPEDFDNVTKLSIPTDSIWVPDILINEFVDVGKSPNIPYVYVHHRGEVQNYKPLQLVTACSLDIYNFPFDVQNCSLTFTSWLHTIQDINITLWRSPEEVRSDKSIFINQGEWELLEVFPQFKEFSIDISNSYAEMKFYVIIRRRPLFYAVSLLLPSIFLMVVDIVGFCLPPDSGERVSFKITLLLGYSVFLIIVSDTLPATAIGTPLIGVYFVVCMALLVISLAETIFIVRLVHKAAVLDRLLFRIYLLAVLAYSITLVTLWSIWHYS
compound,measurement,setting,value
"NCCc1c[nH]c2ccc(O)cc12 [5-HT, 5-hydroxytryptamine]",10–90% Activation rise time,[1]; 10 µM 5-HT,797 ± 108 ms
same,Imax (peak current),[1]; [3],2500±500 nA
same,Desensitization time constant τ,[1]; [4],6 ± 1 s
same,nH (Hill coefficient),[2],2.6±0.4
same,10–90% Activation rise time,[2]; 10 µM 5-HT,621 ± 47 ms
same,Imax (peak current),[2]; [3],6300±800 nA
same,Desensitization time constant τ,[2]; [4],8 ± 2 s
same,Radiolabeled 5-HT bound per oocyte,5-HT3A-A2,0.33±0.06 pmol per oocyte
same,Radiolabeled 5-HT binding to oocytes,5-HT3A-A1,undetectable
